Patent US20110281869A1, “TETRAHYDROISOQUINOLINES AS ANTIMALARIAL AGENTS” (priority 2008, published 2011)

The compounds below were run on P. falciparum K1 (assay: Plasmodium falciparum in vitro assay ([3H] hypoxanthine incorporation)). Settings: Plasmodium falciparum, K1, read-out: IC50 (nM) on K1.
Format: cell-based
Method: In vitro antimalarial activity: Plasmodium falciparum in vitro assay In vitro activity against erythrocytic stages of P. falciparum is determined using a [^3H] hypoxanthine incorporation assay. One strain resistant to chloroquine and pyrimethamine (P. falciparum K1) is used in the assays, and all test compounds are compared for activity with the standard drugs chloroquine (sigma C6628) and artemisinin (sigma-36, 159-3). Compounds are diluted in DMSO to 1 mM and added to parasite cultures incubated in RPMI 1640 medium without hypoxanthine, supplemented with HEPES (5.94 g/L), NaHCO3 (2.1 g/L), neomycin (100 U/mL), Albumax (5 g/L) and washed human red cells at 2.5% hematocrit (0.3% parasitaemia). Seven serial doubling dilutions of each drug are prepared in 96-well microtitre plates and incubated in a humidifying atmosphere at 37° C.; 4% CO2, 3% O2, 93% N2.
After 48 h, 50 μl of [^3H] hypoxanthine (0.5 μCi) is added to each well of a plate. The plates are incubated for a further 24 h under the same conditions. The plates are then harvested with a Betaplate cell harvester (Wallac) and washed with distilled water. The dried filters are inserted into a plastic foil with 10 mL of scintillation fluid, and counted in a Betaplate liquid scintillation counter. IC50 values are calculated from sigmoidal inhibition curves using Microsoft Excel.

Compound	IC50
CCN(CC)CCCC(C)Nc1ccnc2cc(Cl)ccc12 (stereo not shown) [Chloroquine, chloroquine, reference compound]	300 nM

Same assay, conditions: Plasmodium falciparum; erythrocytic stages, strain K1 resistant to chloroquine and pyrimethamine, human red cells; read-out: IC50 (nM) on K1

Compound	IC50
Cn1cc(CC(C(=O)N2CCc3ccccc3C2)N(Cc2ccc(-c3ccncc3)cc2)C(=O)C=Cc2ccc(C(F)(F)F)cc2)cn1 (racemic) [Example 80, rac-N-[2-(3,4-Dihydro-1H-isoquinolin-2-yl)-1-(1-methyl-1H-pyrazol-4-ylmethyl)-2-oxo-ethyl]-N-(4-pyridin-4-yl-benzyl)-3-(4-trifluoromethyl-phenyl)-acrylamide]	107 nM
Cn1ccc(CC(C(=O)N2CCc3ccccc3C2)N(Cc2ccc(-c3ccncc3)cc2)C(=O)C=Cc2ccc(C(F)(F)F)cc2)n1 (racemic) [Example 82, rac-N-[2-(3,4-Dihydro-1H-isoquinolin-2-yl)-1-(1-methyl-1H-pyrazol-3-ylmethyl)-2-oxo-ethyl]-N-(4-pyridin-4-yl-benzyl)-3-(4-trifluoromethyl-phenyl)-acrylamide]	24 nM
O=C(C(Cc1ncccn1)N(Cc1ccc(-c2ccncc2)cc1)C(=O)C=Cc1ccc(C(F)(F)F)cc1)N1CCc2ccccc2C1 (racemic) [Example 86, rac-N-[2-(3,4-Dihydro-1H-isoquinolin-2-yl)-2-oxo-1-pyrimidin-2-ylmethyl-ethyl]-N-(4-pyridin-4-yl-benzyl)-3-(4-trifluoromethyl-phenyl)-acrylamide]	162 nM
O=C(C(Cc1ccon1)N(Cc1ccc(-c2ccncc2)cc1)C(=O)C=Cc1ccc(C(F)(F)F)cc1)N1CCc2ccccc2C1 (racemic) [Example 87, rac-N-[2-(3,4-Dihydro-1H-isoquinolin-2-yl)-1-isoxazol-3-ylmethyl-2-oxo-ethyl]-N-(4-pyridin-4-yl-benzyl)-3-(4-trifluoromethyl-phenyl)-acrylamide]	194 nM
C[C@@H]1CC[C@H]2[C@@H](C)C(=O)O[C@@H]3O[C@@]4(C)CC[C@@H]1[C@]32OO4 [Artemisinin, artemisinin, reference compound]	2 nM
O=C([C@H](Cc1ccccc1)N(Cc1ccc(-c2cncnc2)cc1)C(=O)C=Cc1ccc(C(F)(F)F)nc1)N1CCc2ccccc2C1 [Example 4, (S)—N-[1-Benzyl-2-(3,4-dihydro-1H-isoquinolin-2-yl)-2-oxo-ethyl]-N-(4-pyrimidin-5-yl-benzyl)-3-(6-trifluoromethyl-pyridin-3-yl)-acrylamide]	5 nM
O=C([C@H](Cc1ccccc1)N(Cc1ccc(-c2ccccn2)cc1)C(=O)C=Cc1ccc(C(F)(F)F)cc1)N1CCc2cc(F)ccc2C1 [Example 10, (S)—N-[1-Benzyl-2-(6-fluoro-3,4-dihydro-1H-isoquinolin-2-yl)-2-oxo-ethyl]-N-(4-pyridin-2-yl-benzyl)-3-(4-trifluoromethyl-phenyl)-acrylamide]	14 nM
Cc1ccc(C=CC(=O)N(Cc2ccc(-c3ccccn3)cc2)[C@@H](Cc2ccccc2)C(=O)N2CCc3ccccc3C2)cn1 [Example 59, (S)—N-[1-Benzyl-2-(3,4-dihydro-1H-isoquinolin-2-yl)-2-oxo-ethyl]-3-(6-methyl-pyridin-3-yl)-N-(4-pyridin-2-yl-benzyl)-acrylamide]	14 nM
COc1ccc2c(c1)CN(C(=O)[C@H](Cc1ccccc1)N(Cc1ccc(-c3ccccn3)cc1)C(=O)C=Cc1ccc(C(F)(F)F)cc1)CC2 [Example 69, (S)—N-[1-Benzyl-2-(7-methoxy-3,4-dihydro-1H-isoquinolin-2-yl)-2-oxo-ethyl]-N-(4-pyridin-2-yl-benzyl)-3-(4-trifluoromethyl-phenyl)-acrylamide]	12 nM

Results, then the compound that gave them:

IC50	Compound
84 nM	Cn1nccc1CC(C(=O)N1CCc2ccccc2C1)N(Cc1ccc(-c2ccncc2)cc1)C(=O)C=Cc1ccc(C(F)(F)F)cc1 (racemic) [Example 84, rac-N-[2-(3,4-Dihydro-1H-isoquinolin-2-yl)-1-(2-methyl-2H-pyrazol-3-ylmethyl)-2-oxo-ethyl]-N-(4-pyridin-4-yl-benzyl)-3-(4-trifluoromethyl-phenyl)-acrylamide]
84 nM	Cc1ncsc1C=CC(=O)N(Cc1ccc(-c2ncccn2)cc1)[C@@H](Cc1ccccc1)C(=O)N1CCc2ccccc2C1 [Example 104, (S)—N-[1-Benzyl-2-(3,4-dihydro-1H-isoquinolin-2-yl)-2-oxo-ethyl]-3-(4-methyl-thiazol-5-yl)-N-(4-pyrimidin-2-yl-benzyl)-acrylamide]
52 nM	O=C([C@H](Cc1ccccc1)N(Cc1ccc(-c2ccccn2)cc1)C(=O)C=Cc1ccc(C(F)(F)F)nc1)N1CCc2cc(F)ccc2C1 [Example 78, (S)—N-[1-Benzyl-2-(6-fluoro-3,4-dihydro-1H-isoquinolin-2-yl)-2-oxo-ethyl]-N-(4-pyridin-2-yl-benzyl)-3-(6-trifluoromethyl-pyridin-3-yl)-acrylamide]
29 nM	Cc1c(C=CC(=O)N(Cc2ccc(-c3ncccn3)cc2)[C@@H](Cc2ccccc2)C(=O)N2CCc3ccccc3C2)cnn1C [Example 99, (S)—N-[1-Benzyl-2-(3,4-dihydro-1H-isoquinolin-2-yl)-2-oxo-ethyl]-3-(1,5-dimethyl-1H-pyrazol-4-yl)-N-(4-pyrimidin-2-yl-benzyl)-acrylamide]
25 nM	O=C([C@H](Cc1ccccc1)N(Cc1ccccn1)C(=O)C=Cc1ccc(C(F)(F)F)cc1)N1CCc2ccccc2C1 [Example 6, (S)—N-[1-Benzyl-2-(3,4-dihydro-1H-isoquinolin-2-yl)-2-oxo-ethyl]-N-pyridin-2-ylmethyl-3-(4-trifluoromethyl-phenyl)-acrylamide]
19 nM	COc1ccc(C=CC(=O)N(Cc2ccc(-c3ncccn3)cc2)[C@@H](Cc2ccccc2)C(=O)N2CCc3ccccc3C2)cn1 [Example 93, (S)—N-[1-Benzyl-2-(3,4-dihydro-1H-isoquinolin-2-yl)-2-oxo-ethyl]-3-(6-methoxy-pyridin-3-yl)-N-(4-pyrimidin-2-yl-benzyl)-acrylamide]
17 nM	Cc1nc(C)c(C=CC(=O)N(Cc2ccc(-c3ccccn3)cc2)[C@@H](Cc2ccccc2)C(=O)N2CCc3ccccc3C2)s1 [Example 51, (S)—N-[1-Benzyl-2-(3,4-dihydro-1H-isoquinolin-2-yl)-2-oxo-ethyl]-3-(2,4-dimethyl-thiazol-5-yl)-N-(4-pyridin-2-yl-benzyl)-acrylamide]
11 nM	O=C([C@H](Cc1ccccc1)N(Cc1ccc(-c2ccccn2)cc1)C(=O)C=Cc1ccc(C(F)(F)F)cc1)N1CCc2c(F)cccc2C1 [Example 74, (S)—N-[1-Benzyl-2-(5-fluoro-3,4-dihydro-1H-isoquinolin-2-yl)-2-oxo-ethyl]-N-(4-pyridin-2-yl-benzyl)-3-(4-trifluoromethyl-phenyl)-acrylamide]
10 nM	COc1ccc(C=CC(=O)N(Cc2ccc(-c3ccccn3)cc2)[C@@H](Cc2ccccc2)C(=O)N2CCc3ccccc3C2)cn1 [Example 62, (S)—N-[1-Benzyl-2-(3,4-dihydro-1H-isoquinolin-2-yl)-2-oxo-ethyl]-3-(6-methoxy-pyridin-3-yl)-N-(4-pyridin-2-yl-benzyl)-acrylamide]
10 nM	Cc1c(C=CC(=O)N(Cc2ccc(-c3ccccn3)cc2)[C@@H](Cc2ccccc2)C(=O)N2CCc3ccccc3C2)cnn1C [Example 65, (S)—N-[1-Benzyl-2-(3,4-dihydro-1H-isoquinolin-2-yl)-2-oxo-ethyl]-3-(1,5-dimethyl-1H-pyrazol-4-yl)-N-(4-pyridin-2-yl-benzyl)-acrylamide]
3.5 nM	O=C([C@H](Cc1ccccc1)N(Cc1ccc(-c2ccccn2)cc1)C(=O)/C=C/c1ccc(C(F)(F)F)cc1)N1CCc2ccccc2C1 [Example 1, (S)—N-[1-Benzyl-2-(3,4-dihydro-1H-isoquinolin-2-yl)-2-oxo-ethyl]-N-(4-pyridin-2-yl-benzyl)-3-(trifluoromethyl-phenyl)-acrylamide]

Same assay, conditions: erythrocytic stages, strain K1 resistant to chloroquine and pyrimethamine, human red cells; read-out: IC50 (nM) on K1

Compound	IC50
COc1cc(C=CC(=O)N(Cc2ccc(-c3ccccn3)cc2)[C@@H](Cc2ccccc2)C(=O)N2CCc3ccccc3C2)cc(OC)c1 [Example 14, (S)—N-[1-Benzyl-2-(3,4-dihydro-1-H-isoquinolin-2-yl)-2-oxo-ethyl]-3-(3,5-dimethoxy-phenyl)-N-(4-pyridin-2-yl-benzyl)-acrylamide]	18 nM
O=C([C@H](Cc1ccccc1)N(Cc1ccc(-c2ccccn2)cc1)C(=O)C=Cc1cccc(Cl)c1Cl)N1CCc2ccccc2C1 [Example 25, (S)—N-[1-Benzyl-2-(3,4-dihydro-1-H-isoquinolin-2-yl)-2-oxo-ethyl]-3-(2,3-dichloro-phenyl)-N-(4-pyridin-2-yl-benzyl)-acrylamide]	13 nM
Cc1ccc(C=CC(=O)N(Cc2ccc(-c3ccccn3)cc2)[C@@H](Cc2ccccc2)C(=O)N2CCc3ccccc3C2)cc1 [Example 32, (S)—N-[1-Benzyl-2-(3,4-dihydro-1-H-isoquinolin-2-yl)-2-oxo-ethyl]-N-(4-pyridin-2-yl-benzyl)-3-p-tolyl-acrylamide]	7.5 nM
CN(C)c1ccc(C=CC(=O)N(Cc2ccc(-c3ccccn3)cc2)[C@@H](Cc2ccccc2)C(=O)N2CCc3ccccc3C2)cc1 [Example 38, (S)—N-[1-Benzyl-2-(3,4-dihydro-1-H-isoquinolin-2-yl)-2-oxo-ethyl]-3-(4-dimethylamino-phenyl)-N-(4-pyridin-2-yl-benzyl)-acrylamide]	10 nM
